Measured values as given in ChEMBL document CHEMBL1131695, “Design and synthesis of 6-(6-D-ribitylamino-2,4-dihydroxypyrimidin-5-yl)-1-hexyl phosphonic acid, a potent inhibitor of lumazine synthase” (Bioorg Med Chem Lett, 1999).

experiment: Inhibitory activity against lumazine synthase beta-60 capsids from Bacillus subtilis

Compound | Ki
O=c1[nH]c(=O)c2nnn(C[C@H](O)[C@H](O)[C@H](O)CO)c2[nH]1 | 330 µM
O=C(Nc1c(O)nc(O)nc1NC[C@H](O)[C@H](O)[C@H](O)CO)c1ccc(S(=O)(=O)O)cc1 | 360 µM
O=C(Nc1c(O)nc(O)nc1NC[C@H](O)[C@H](O)[C@H](O)CO)c1ccc(S(=O)(=O)F)cc1 | 200 µM
O=P(O)(O)CCCCCCc1c(O)nc(O)nc1NC[C@H](O)[C@H](O)[C@H](O)CO | 109 µM
O=C(O)CCCC(=O)Nc1c(O)nc(O)nc1NC[C@H](O)[C@H](O)[C@H](O)CO | 430 µM
O=c1[nH]c(=O)c2ncn(C[C@H](O)[C@H](O)[C@H](O)CO)c2[nH]1 | 470 µM
